{"source": "paper PMC9655001", "about": "“Isolation and Identification of Antioxidative Peptide from Goose Liver Hydrolysate to Ameliorate Alcohol-Mediated Oxidative Stress Damage in HHL-5 Hepatocytes” (Molecules, 2022)", "key": {"[1]": {"assay": "DPPH radical scavenging activity", "conditions": "1 mg/mL, 0.2 mmol/L DPPH, 30 min room temperature, absorbance 517 nm, mean ± SD", "method": "(§1) The antioxidant activity of the target peptides was evaluated by detecting the hydroxyl radical scavenging activity (∙OH), DPPH radical scavenging activity, and Fe^2+ chelating ability; the method was performed according to Zhu et al. with some modifications.\nMeasurement of the DPPH radical scavenging activity. One mL of the LPLPFP (dissolved in deionized water) was mixed with 1 mL of 0.2 mmol/L DPPH (in 95% ethanol) as the sample group; 1 mL of deionized water was mixed with 1 mL of ethanol (95%) as the blank group; and 1 mL of 0.2 mmol/L DPPH was mixed with 1 mL of ethanol (95%) as the control group. The mixture was agitated using a vortex and incubated for 30 min at room temperature, protected from light, and then the absorbance at 517 nm was measured. The scavenging activity of LPLPFP and BHT was calculated using the following equation:DPPH radical scavenging activity (%) = 1 − [ (As − Ac) ÷ (Ab − Ac)] × 100% where As, Ac, and Ab represent the absorbance of the sample, the control, and the blank groups, respectively. BHT was used as a positive control."}, "Fe^2+ chelating ability": {"assay": "Fe^2+ chelating ability", "conditions": "1 mg/mL, ferrozine, 10 min room temperature, absorbance 562 nm, mean ± SD", "method": "as §1\nMeasurement of the Fe^2+ chelating ability. Briefly, 1 mL of LPLPFP was mixed with 0.05 mL of FeCl2 (2 mmol/L) and 0.2 mL of ferrozine (5 mmol/L). The mixture was vortexed and kept at room temperature for 10 min prior to the measurement of the absorbance at 562 nm (As). The control (Ac) contained everything except using deionized water instead of LPLPFP. The chelating ability was calculated according to the equation Fe^2+chelating ability (%) = (Ac − As) ÷ Ac × 100% where As and Ac represent the absorbance of the sample and the control groups. BHT was used as a positive control."}, "[2]": {"assay": "∙OH radical scavenging activity", "conditions": "1 mg/mL, 37 °C 60 min, absorbance 536 nm, mean ± SD", "method": "as §1\nMeasurement of the ∙OH radical scavenging activity. The sample group was a mixture of 0.6 mL of 1, 10-phenanthroline monohydrate (5 mmol/L) and 0.4 mL of phosphate buffer (0.2 M, pH 7.4), and then 0.6 mL of LPLPFP (1 mg/mL), 0.6 mL of EDTA (15 mmol/L), and 0.6 mL of FeSO4 (5 mmol/L) were mixed thoroughly. After mixing, 0.8 mL of H2O2 (0.1%) was added and incubated at 37 °C for 60 min. Afterward, the mixture absorbance was measured at 536 nm with the multifunctional microplate reader. The control group contained the same solutions as the sample group, except deionized water was used instead of the sample. The blank group contained the same solution as the control group, except deionized water was used instead of H2O2. The results were determined according to the equation. hydroxyl radical scavenging activity (%) = (As − Ac) ÷ (Ab − Ac) × 100% where As, Ac, and Ab represent the absorbance of the sample and the control and blank groups, respectively. BHT was used as a positive control."}, "pepsin and trypsin": {"tested_on": "pepsin and trypsin", "assay": "Pepsin-trypsin simulated GI digestion stability", "format": "in vitro ADME", "conditions": "400 μg/mL peptide; simulated gastric juice (pepsin, pH 3.0) 37 °C 2 h, then simulated intestinal fluid (trypsin, bile salt) 2 h; read-out: retained hepatoprotective activity (ALT, AST, MDA) in HHL-5 model", "method": "The stability of LPLPFP in response to pepsin and trypsin in the simulation of GI digestion in vitro was examined based on Xie et al.. A 1 L ultrapure water solution containing 2 g of NaCl and 3.2 g of pepsin (3000 U/mg protein) with a pH of 3.0 (adjusted with a 6 mol/L HCl solution), was configured as simulated gastric juice. In addition, 0.68 g of potassium dihydrogen phosphate, 7.7 mL of 0.2 mol/L NaOH solution, 1 g of trypsin (285 U/mg protein), and 6 g of bile salt were added and dissolved in 70 mL of ultrapure water with a pH of 7.6 (adjusted with a 0.2 mol/L NaOH solution) and the volume was filled with ultrapure water up to 1 L (as simulated intestinal fluid). The 400 μg/mL of peptide solution at pH 3.0 (adjusted with a 1 mol/L HCl solution) and 5 mL of simulated gastric juice was mixed and shaken at 37 °C for 2 h to simulate gastric digestion, then the mixture was terminated by being heated at 100 °C for 10 min, the pH was adjusted to 7.2 with a 0.2 mol/L NaOH solution, and 5 mL of simulated intestinal juice was added to the solution, and the same conditions were used for simulating intestinal digestion. Finally, the digestive liquid was transferred to the ultrafiltration centrifuge tube (1 kDa) and centrifuged at 4 °C, 8500× g for 20 min; the filtered solutions were desalted by a polar enhanced polymer (PEP) column (500 mg/6 mL) and dried in a vacuum freeze-dryer."}, "HHL-5 hepatocytes [3]": {"tested_on": "HHL-5 hepatocytes", "assay": "H2O2 level in alcohol-mediated HHL-5 hepatocytes", "format": "cell-based, human", "conditions": "alcohol alone (EtOH model group)", "procedure": "The cell suspension was inoculated into 96-well plates (4 × 10^3 per well) and added to the culture medium containing: DMEM-F12 (1:1, HyClone, Logan, UT, USA), 10% FBS (Gibco, New York, NY, USA), 1% P/S (100 U/L), 15 mmol/L of HEPES, and 2.5 mmol/L of L-glutamine, then the plates with cells were placed in a 5% CO2 humidified atmosphere at 37 °C for 24 h. […] Furthermore, HHL-5 hepatocytes were cultured with different concentrations of GLHP (100 μg/mL, 200 μg/mL, 300 μg/mL, 400 μg/mL, and 500 μg/mL) to evaluate the cytotoxicity of GLHP, as described above. The ability of GLHP to protect HHL-5 hepatocytes was evaluated. […] In the CTRL group, a culture medium supplemented with an equal volume of the PBS was added and incubated for 12 h, and the culture medium was then substituted with an equal volume of the PBS and incubated for 48 h. Finally, the culture media and cells were collected for further analysis."}, "HHL-5 hepatocytes [4]": {"tested_on": "HHL-5 hepatocytes", "assay": "GSH-Px activity in alcohol-mediated HHL-5 hepatocytes", "format": "cell-based, human", "conditions": "alcohol alone (EtOH model group)", "method": "(§2) Cells were collected with PBS, the activity of ALT (C009-2-1), AST (C0010-2-1), and MDA (A003-1) in cell supernatant and the SOD (A001-3), GSH-Px (A005), CAT (A007-1-1), and ROS (E004-1-1) in the cells were measured using corresponding assay kits (Nanjing Jiancheng Biotechnology Institute, Nanjing, China) according to the manufacturer’s instructions.\nGSH-Px: 0.2 mL of sample was mixed with 0.2 mL of […] and performed at 37 °C for 5 min. Then, 0.1 mL of reagent one was added and performed at 37 °C for 5 min. Subsequently, the miscible liquids were centrifuged at 4 °C, 3500× g for 10 min. One mL of supernatant was mixed with 1 mL of reagent three, 0.25 mL of reagent four, and 0.05 mL of reagent five and performed at room temperature for 15 min. The absorbance value was measured at a 412 nm wavelength by a multifunctional microplate reader."}, "HHL-5 hepatocytes [5]": {"tested_on": "HHL-5 hepatocytes", "assay": "AST level in model of alcohol-mediated HHL-5 hepatocytes damage", "format": "cell-based, human", "conditions": "alcohol 500 mmol/L, 48 h, no peptide pre-treatment (model group)", "method": "as §2\nALT and AST: 5 μL of sample was mixed with 20μL of ALT/AST matrix solution and the reaction was performed at 37 °C for 30 min. Then, 20 μL of 2, 4-dinitrophenylhydrazine solution was added and the reaction was performed at 37 °C for 20 min. Finally, 200 μL of sodium hydroxide solution (0.4 mol/L) was added and the reaction was performed at room temperature for 15 min. The absorbance value was measured at a 510 nm wavelength by a multifunctional microplate reader."}, "HHL-5 hepatocytes [6]": {"tested_on": "HHL-5 hepatocytes", "assay": "ROS level in alcohol-mediated HHL-5 hepatocytes (DCFH-DA)", "format": "cell-based, human", "conditions": "alcohol alone (EtOH model group)", "method": "as §2\nROS: A DCFH-DA probe was added directly to the serum-free medium: DCFH-DA was generally diluted with a serum-free medium at a final concentration of 10 µM at 1:1000. After removing the culture medium, an appropriate volume of diluted DCFH-DA was added. The volume added should be sufficient to cover the cells. Usually, no less than 1 mL of diluted DCFH-DA is added to one well of a 6-well plate. A sample of cells without a probe and with a medium only was set as negative for the control. Positive control: take a sample of cells with a probe and add reactive oxygen species to induce the cells. The cells were incubated at 37 °C for 20 min […] (mixed upside down every 5 min to make full contact between the probe and cell). […] In general, an obvious green fluorescence can be observed in the positive control cells after 30 min of stimulation. […] It can also be detected according to FITC fluorescence detection conditions. The results were expressed as fluorescence values."}, "HHL-5 hepatocytes [7]": {"tested_on": "HHL-5 hepatocytes", "assay": "MDA level in model of alcohol-mediated HHL-5 hepatocytes damage", "format": "cell-based, human", "conditions": "alcohol 500 mmol/L, 48 h, no peptide pre-treatment (model group)", "method": "as §2\nMDA: 0.1 mL of sample was mixed with 0.1 mL of reagent one, 3 mL of reagent two, and 1 mL of reagent three in the 10 mL centrifuge tube. Then, the centrifuge tube was centrifuged at 4 °C, 3500× g for 10 min after being heated in a boiling water bath for 40 min. The absorbance value of 200 μL of the supernatant was measured at a 532 nm wavelength by a multifunctional microplate reader."}, "HHL-5 hepatocytes [8]": {"tested_on": "HHL-5 hepatocytes", "assay": "SOD activity in alcohol-mediated HHL-5 hepatocytes", "format": "cell-based, human", "conditions": "alcohol alone (EtOH model group)", "method": "as §2\nSOD: 20 μL of sample was mixed with 20 μL enzyme working liquid and 200 μL of substrate application solution. Then, miscible liquids were performed at 37 °C for 20 min. The absorbance values of the miscible liquids were measured at a 450 nm wavelength by a multifunctional microplate reader."}, "HHL-5 hepatocytes [9]": {"tested_on": "HHL-5 hepatocytes", "assay": "CAT activity in alcohol-mediated HHL-5 hepatocytes", "format": "cell-based, human", "conditions": "alcohol alone (EtOH model group)", "method": "as §2\nCAT: 0.05 mL of sample was mixed with 1.0 mL reagent one, 0.1 mL reagent two and performed at 37 °C for 1 min. Then, 1.0 mL reagent three and 0.1 mL reagent four were mixed with the miscible liquids. The absorbance value was measured at 405 nm wavelength by a multifunctional microplate reader."}, "HHL-5 hepatocytes [10]": {"tested_on": "HHL-5 hepatocytes", "assay": "Cell viability by Cell Counting Kit-8", "method": "Furthermore, HHL-5 hepatocytes were cultured with different concentrations of GLHP (100 μg/mL, 200 μg/mL, 300 μg/mL, 400 μg/mL, and 500 μg/mL) to evaluate the cytotoxicity of GLHP, as described above. The ability of GLHP to protect HHL-5 hepatocytes was evaluated. […] In the CTRL group, a culture medium supplemented with an equal volume of the PBS was added and incubated for 12 h, and the culture medium was then substituted with an equal volume of the PBS and incubated for 48 h. Finally, the culture media and cells were collected for further analysis.\nThe Cell Counting Kit-8 (CCK-8, Beijing Solarbio Science and Technology Co., Ltd., Beijing, China) was used to assess the HH-5 cell viability; the testing procedures were performed according to the manufacturer’s protocol. Adherent cells in 96-well culture plates were treated and then incubated with a CCK solution for 2 h; the absorbance was detected at a wavelength of 450 nm with the multifunctional microplate reader."}, "[11]": {"conditions": "cited from earlier work", "description": "Typically, oligopeptides containing 2 to 10 amino acid residues are considered to have a higher antioxidant activity compared with their parent protein [14]. Free radicals, linked to oxidative stress, are highly reactive with other molecules, including vital DNA and proteins, the destruction of which can damage or kill cells. Among the many free radicals, the ∙OH radical is commonly considered as one of the most harmful highly react ..."}}, "note": "Read-outs that look alike come from different tables or passages of the source. Marks after values point to notes of the source that are not given here. Ends that are not written are not given here. Peptide text beside a SMILES is read from it."}
{"compound": "Cc1cc(C(C)(C)C)c(O)c(C(C)(C)C)c1", "note": "[BHT]", "values": [{"measurement": "DPPH Radical Scavenging Activity (%)", "setting": "[1]", "result": "90.56 ± 1.73 ^b %"}, {"measurement": "Fe^2+ Chelating Ability (%)", "setting": "Fe^2+ chelating ability", "result": "14.39 ± 2.46 ^b %"}, {"measurement": "∙OH Radical Scavenging Activity (%)", "setting": "[2]", "result": "79.38 ± 2.03 ^b %"}]}
{"compound": "CC(C)C[C@H](NC(=O)[C@@H]1CCCN1C(=O)[C@@H](N)CC(C)C)C(=O)N1CCC[C@H]1C(=O)N[C@@H](Cc1ccccc1)C(=O)N1CCC[C@H]1C(=O)O", "note": "[LPLPFP, Leu-Pro-Leu-Pro-Phe-Pro] (H-LPLPFP-OH)", "values": [{"measurement": "resistance to pepsin-trypsin simulated GI digestion", "setting": "pepsin and trypsin", "result": "strong resistance"}]}
{"compound": "CCO", "note": "[alcohol, anhydrous ethanol]", "values": [{"measurement": "level of H2O2 after stimulation with alcohol", "setting": "HHL-5 hepatocytes [3]", "result": "43860 ± 3570", "unit": "µM"}, {"measurement": "level of GSH-Px after administration of alcohol", "setting": "HHL-5 hepatocytes [4]", "result": "49.26 ± 4.82", "unit": "U/mg prot"}, {"measurement": "level of AST in the EtOH group", "setting": "HHL-5 hepatocytes [5]", "result": "376.57 ± 32.83", "unit": "U/L"}, {"measurement": "level of ROS after stimulation with alcohol", "setting": "HHL-5 hepatocytes [6]", "result": "95.23 ± 6.54", "unit": "U/mg prot"}, {"measurement": "level of MDA in the EtOH group", "setting": "HHL-5 hepatocytes [7]", "result": "2.436e+07 ± 2.85e+06", "unit": "µM"}, {"measurement": "level of SOD after administration of alcohol", "setting": "HHL-5 hepatocytes [8]", "result": "31.28 ± 4.53", "unit": "U/mg prot"}, {"measurement": "level of CAT after administration of alcohol", "setting": "HHL-5 hepatocytes [9]", "result": "24.87 ± 3.28", "unit": "U/mg prot"}, {"measurement": "viability of HHL-5 hepatocytes", "setting": "HHL-5 hepatocytes [10]; 500 mmol/L alcohol, 48 h, CCK-8, mean ± SD, at least triplicates", "result": "approximately 49.28 ± 5.12%"}, {"measurement": "median lethal dose of alcohol for HHL-5 hepatocytes (LD50)", "setting": "HHL-5 hepatocytes [10]; 48 h incubation, CCK-8", "result": 500, "unit": "mmol/L"}]}
{"compound": "Gly-Lys-Phe-Asn-Val", "values": [{"measurement": "Fe^2+ chelating ability (source: scavenging rate of Fe^2+)", "setting": "[11]; 1 mg/mL ref 16", "result": 63.20, "unit": "%"}]}
{"compound": "NPPKFD", "values": [{"measurement": "Fe^2+ chelating ability (source: scavenging rate of Fe^2+)", "setting": "[11]; 1 mg/mL ref 3", "result": 66.92, "unit": "%"}]}
